# From paper PMC10066365, “Nemacol is a small molecule inhibitor of C. elegans vesicular acetylcholine transporter with anthelmintic potential” (Nature Communications, 2023)
# Several values for one entry are separate records, joined by “and”; a condition that tells them apart may be missing. Identical values can stand only once.
# Test system: C. elegans
# Assay: C. elegans motor phenotype scoring on solid media (Punc/jerky-unc, coiled, paralyzed), wild-type young adults
# Type: in vivo, Caenorhabditis elegans
# Details: for P (number of animals) / Punc (number of animals) / C1 (number of animals) / C2 (number of animals) / Fraction Coiled / Fraction Paralyzed / Fraction Punc / NP (number of animals) / Next Day Animals alive (moving fine): single replicate; for AVERAGES Fraction Coiled / AVERAGES Fraction Paralyzed / AVERAGES Fraction Punc: average of 3 replicates
# [1] = 60uM, one hour, young adults, 20 animals per trial, single replicate counts
compound,measurement,setting,value
O=[N+]([O-])c1ccc(N2CCN(CC3CC=CCC3)CC2)cc1 (stereo not shown) [Nemacol-4],P (number of animals),"30 μM, 90 min",3 and 0
same,Punc (number of animals),"30 μM, 90 min",13 and 9 and 14
same,AVERAGES Fraction Coiled,"30 μM, 120 min",0.0741
same,AVERAGES Fraction Paralyzed,"30 μM, 120 min",0.0185
same,AVERAGES Fraction Punc,"30 μM, 120 min",0.5
same,C1 (number of animals),"30 μM, 120 min",2 and 1
same,C2 (number of animals),"30 μM, 120 min",0
same,Fraction Coiled,"30 μM, 120 min",0.111 and 0.0556
same,Fraction Paralyzed,"30 μM, 120 min",0.0556 and 0.0
same,Fraction Punc,"30 μM, 120 min",0.556 and 0.5
same,NP (number of animals),"30 μM, 120 min",5 and 8
same,P (number of animals),"30 μM, 120 min",1 and 0
same,Punc (number of animals),"30 μM, 120 min",10 and 9
same,AVERAGES Fraction Coiled,"30 μM, 240 min",0.0
same,AVERAGES Fraction Paralyzed,"30 μM, 240 min",0.0
same,AVERAGES Fraction Punc,"30 μM, 240 min",0.333
same,C1 (number of animals),"30 μM, 240 min",0
same,C2 (number of animals),"30 μM, 240 min",0
same,Fraction Coiled,"30 μM, 240 min",0.0
same,Fraction Paralyzed,"30 μM, 240 min",0.0
same,Fraction Punc,"30 μM, 240 min",0.333 and 0.222 and 0.444
same,NP (number of animals),"30 μM, 240 min",12 and 14 and 10
same,P (number of animals),"30 μM, 240 min",0
same,Punc (number of animals),"30 μM, 240 min",6 and 4 and 8
same,AVERAGES Fraction Coiled,"30 μM, 360 min",0.0
same,AVERAGES Fraction Paralyzed,"30 μM, 360 min",0.0
same,AVERAGES Fraction Punc,"30 μM, 360 min",0.111
same,C1 (number of animals),"30 μM, 360 min",0
same,C2 (number of animals),"30 μM, 360 min",0
same,Fraction Coiled,"30 μM, 360 min",0.0
same,Fraction Paralyzed,"30 μM, 360 min",0.0
same,Fraction Punc,"30 μM, 360 min",0.0556 and 0.278 and 0.0
same,NP (number of animals),"30 μM, 360 min",17 and 13 and 18
same,P (number of animals),"30 μM, 360 min",0
same,Punc (number of animals),"30 μM, 360 min",1 and 5 and 0
same,Next Day Animals alive (moving fine),30 μM,"alive, recovered"
same,AVERAGES Fraction Coiled,"60 μM, 30 min",0.111
same,AVERAGES Fraction Paralyzed,"60 μM, 30 min",0.0
same,AVERAGES Fraction Punc,"60 μM, 30 min",0.8
same,C1 (number of animals),"60 μM, 30 min",1 and 0
same,C2 (number of animals),"60 μM, 30 min",2 and 1
same,Fraction Coiled,"60 μM, 30 min",0.167 and 0.0556 and 0.111
same,Fraction Paralyzed,"60 μM, 30 min",0.0
same,Fraction Punc,"60 μM, 30 min",0.7 and 0.9
same,NP (number of animals),"60 μM, 30 min",2 and 4 and 0
same,P (number of animals),"60 μM, 30 min",0
same,Punc (number of animals),"60 μM, 30 min",13 and 16
same,AVERAGES Fraction Coiled,"60 μM, 60 min",0.149
same,AVERAGES Fraction Paralyzed,"60 μM, 60 min",0.037
same,AVERAGES Fraction Punc,"60 μM, 60 min",0.7
same,C1 (number of animals),"60 μM, 60 min",2 and 0 and 1
same,C2 (number of animals),"60 μM, 60 min",2 and 1
same,Fraction Coiled,"60 μM, 60 min",0.222 and 0.0588 and 0.167
same,Fraction Paralyzed,"60 μM, 60 min",0.111 and 0.0
same,Fraction Punc,"60 μM, 60 min",0.667 and 0.7 and 0.8
same,NP (number of animals),"60 μM, 60 min",0 and 4
same,P (number of animals),"60 μM, 60 min",2 and 0
same,Punc (number of animals),"60 μM, 60 min",12 and 15
same,AVERAGES Fraction Coiled,"60 μM, 90 min",0.148
same,AVERAGES Fraction Paralyzed,"60 μM, 90 min",0.111
same,AVERAGES Fraction Punc,"60 μM, 90 min",0.741
same,C1 (number of animals),"60 μM, 90 min",3 and 1 and 0
same,C2 (number of animals),"60 μM, 90 min",1 and 2
same,Fraction Coiled,"60 μM, 90 min",0.222 and 0.167 and 0.0556
same,Fraction Paralyzed,"60 μM, 90 min",0.222 and 0.0556
same,Fraction Punc,"60 μM, 90 min",0.556 and 0.8 and 0.9
same,NP (number of animals),"60 μM, 90 min",0
same,P (number of animals),"60 μM, 90 min",4 and 1
same,Punc (number of animals),"60 μM, 90 min",10 and 14 and 16
same,AVERAGES Fraction Coiled,"60 μM, 120 min",0.111
same,AVERAGES Fraction Paralyzed,"60 μM, 120 min",0.037
same,AVERAGES Fraction Punc,"60 μM, 120 min",0.8
same,C1 (number of animals),"60 μM, 120 min",1 and 0
same,C2 (number of animals),"60 μM, 120 min",1 and 2
same,Fraction Coiled,"60 μM, 120 min",0.111
same,Fraction Paralyzed,"60 μM, 120 min",0.0556 and 0.0
same,Fraction Punc,"60 μM, 120 min",0.7 and 0.9 and 0.8
same,NP (number of animals),"60 μM, 120 min",2 and 0
same,P (number of animals),"60 μM, 120 min",1 and 0
same,Punc (number of animals),"60 μM, 120 min",13 and 16 and 15
same,AVERAGES Fraction Coiled,"60 μM, 240 min",0.0
same,AVERAGES Fraction Paralyzed,"60 μM, 240 min",0.037
same,AVERAGES Fraction Punc,"60 μM, 240 min",0.5
same,C1 (number of animals),"60 μM, 240 min",0
same,C2 (number of animals),"60 μM, 240 min",0
same,Fraction Coiled,"60 μM, 240 min",0.0
same,Fraction Paralyzed,"60 μM, 240 min",0.0 and 0.111
same,Fraction Punc,"60 μM, 240 min",0.4 and 0.333 and 0.7
same,NP (number of animals),"60 μM, 240 min",11 and 12 and 3
same,P (number of animals),"60 μM, 240 min",0 and 2
same,Punc (number of animals),"60 μM, 240 min",7 and 6 and 13
same,AVERAGES Fraction Coiled,"60 μM, 360 min",0.0
same,AVERAGES Fraction Paralyzed,"60 μM, 360 min",0.0
same,AVERAGES Fraction Punc,"60 μM, 360 min",0.37
same,C1 (number of animals),"60 μM, 360 min",0
same,C2 (number of animals),"60 μM, 360 min",0
same,Fraction Coiled,"60 μM, 360 min",0.0
same,Fraction Paralyzed,"60 μM, 360 min",0.0
same,Fraction Punc,"60 μM, 360 min",0.333 and 0.444
same,NP (number of animals),"60 μM, 360 min",12 and 10
same,P (number of animals),"60 μM, 360 min",0
same,Punc (number of animals),"60 μM, 360 min",6 and 8
same,Next Day Animals alive (moving fine),60 μM,"alive, recovered"
same,"any phene, mean % fraction of young adults exhibiting any phenotype (coiled, jerky-Unc or paralyzed)","60uM, one hour, mean of three biological replicates",94.1667%
same,atypical locomotion (number of animals),[1],9 and 8 and 13 and 10 and 2 and 3
same,coiled (number of animals),[1],8 and 7 and 3 and 1 and 4 and 5
same,no phene (number of animals),[1],0 and 3 and 4
same,paralyzed (number of animals),[1],3 and 5 and 1 and 14 and 12
same,EC50,"Caenorhabditis elegans, 1 h, Fig. 1, dose-response at 60 min, wild-type young adults, +/- 95% CI, read-out: EC50",15 ± 2.3 µM
